Reference: patent publication US8211901B2, “Naphthamide derivatives as multi-target protein kinase inhibitors and histone deacetylase inhibitors” (Shenzhen Chipscreen Biosciences Ltd., priority 2009, dated 2012)

Columns and labels:
HUVEC cells = test: VEGF dependent cell proliferation (MTS); type: cell-based; conditions: Homo sapiens, VEGF 165 50 ng/ml, 72 hours, serum-free medium, read-out: GI50 nM (VEGF ligand-dependent cell proliferation)
Description: VEGF Dependent Cell Proliferation:
HUVEC cells were plated into 96-well plates at 6,000 per well and incubated with serum-free medium for 2 hours. Compounds and VEGF 165 (50 ng/ml) were added and incubated for 72 hours in serum-free medium. The effects on proliferation were determined by addition of MTS reagent (Promega) according to the instruction, incubation for 2 hours at 37° C. in CO2 incubator, and record the absorbance at 490 nm using an ELISA plate reader.

Class I HDAC = test: P21 reporter gene assay in HeLa cells; type: cell-based; conditions: 24 hours
Description: HDAC subtype selectivity inhibition assay of tested compounds was carried out by several reporter gene assays experiments. Briefly, HeLa cells were seeded in 96-well plates the day before transfection to give a confluence of 50-80%. Cells were transfected with one of reporter gene plasmid containing a promoter sequence or response element upstream of a luciferase gene construct using FuGene6 transfection reagent according to the manufacturer's instruction (Roche). The promoters or response elements including p21-promoter was fused upstream to the luciferase gene reporter construct. For normalizing the transfection efficiency, a GFP expression plasmid was cotransfected. Cells were allowed to express protein for 24 hours followed by addition of individual compounds or the vehicle (DMSO). 24 hours later the cells were harvested, and the luciferase assay and GFP assay were performed using corresponding assay kits according to the manufacturer's instructions (Promega).

human PDGFRβ = biological target: T1, human PDGFRβ (Homo sapiens, UniProt P09619); test: PDGF dependent cell proliferation (MTS); type: cell-based; conditions: PDGFRβ NIH-3T3 cells, PDGF BB 50 ng/ml, 72 hours, serum-free medium; read-out: GI50 nM (PDGF ligand-dependent cell proliferation)
T1 construct: expressed in transfected cells
T1 sequence (P09619 33-1106): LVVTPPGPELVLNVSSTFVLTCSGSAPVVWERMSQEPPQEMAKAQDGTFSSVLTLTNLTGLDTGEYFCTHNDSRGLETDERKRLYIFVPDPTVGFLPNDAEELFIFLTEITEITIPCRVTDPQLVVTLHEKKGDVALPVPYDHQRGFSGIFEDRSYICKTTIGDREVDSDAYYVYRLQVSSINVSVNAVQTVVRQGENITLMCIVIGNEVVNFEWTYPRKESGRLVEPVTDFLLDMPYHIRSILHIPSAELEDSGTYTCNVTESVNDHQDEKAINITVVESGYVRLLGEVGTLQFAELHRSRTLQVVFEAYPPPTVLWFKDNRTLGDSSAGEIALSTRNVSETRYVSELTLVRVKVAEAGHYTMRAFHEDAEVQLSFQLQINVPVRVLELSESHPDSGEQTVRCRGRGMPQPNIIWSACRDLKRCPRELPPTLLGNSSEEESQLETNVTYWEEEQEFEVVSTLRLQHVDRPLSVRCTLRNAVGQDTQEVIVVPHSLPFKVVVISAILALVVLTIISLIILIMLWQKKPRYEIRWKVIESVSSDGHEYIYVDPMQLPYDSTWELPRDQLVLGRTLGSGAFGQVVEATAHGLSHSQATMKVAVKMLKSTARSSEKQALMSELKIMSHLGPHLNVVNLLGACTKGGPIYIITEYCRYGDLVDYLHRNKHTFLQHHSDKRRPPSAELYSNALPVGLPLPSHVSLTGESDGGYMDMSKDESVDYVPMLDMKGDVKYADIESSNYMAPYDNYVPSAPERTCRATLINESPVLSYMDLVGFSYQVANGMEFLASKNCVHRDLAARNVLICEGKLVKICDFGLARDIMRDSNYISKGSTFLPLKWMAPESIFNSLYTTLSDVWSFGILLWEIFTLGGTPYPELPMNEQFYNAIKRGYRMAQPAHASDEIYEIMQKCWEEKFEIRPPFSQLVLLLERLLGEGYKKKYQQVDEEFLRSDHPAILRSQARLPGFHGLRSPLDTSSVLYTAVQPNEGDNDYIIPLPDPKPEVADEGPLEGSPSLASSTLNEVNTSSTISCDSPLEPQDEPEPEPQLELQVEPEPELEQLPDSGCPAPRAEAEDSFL
Description: PDGF Dependent Cell Proliferation:
NIH-3T3 mouse fibroblasts cell line engineered to stably express human PDGFIRβ was constructed and used to evaluate PDGF dependent cell proliferation. PDGFRβ NIH-3T3 cells were plated into 96-well plates at 5,000 per well and incubated with serum-free medium for 24 hours. Compounds and PDGF BB (50 ng/ml) were added and incubated for 72 hours in serum-free medium. The effects on proliferation were determined by addition of MTS reagent (Promega) according to the instruction, incubation for 2 hours at 37° C. in CO2 incubator, and record the absorbance at 490 nm using an ELISA plate reader.

[1] = system: total HDAC enzyme (HeLa extract); test: In vitro inhibition of total HDAC enzyme activity (HDAC Fluorimetric Assay/Drug Discovery Kit); type: biochemical
Description: Measurement of In Vitro Inhibition of Total HDAC Enzyme Activity:
The in vitro inhibition of total HDAC enzyme was determined by HDAC Fluorimetric Assay/Drug Discovery Kit (BIOMOL) according to manufacture's instruction. • 1. Add Assay buffer, diluted trichostatin A or test inhibitor to appropriate wells of the microtiter plate. Following table lists examples of various assay types and the additions required for each test.
• 2. Add diluted HeLa extract or other HDAC sample to all wells except those that are to be “No Enzyme Controls” (Blank). • 3. Allow diluted Fluor de Lys™ Substrate and the samples in the microtiter plate to equilibrate to assay temperature (25° C.). • 4. Initiate HDAC reactions by adding diluted substrate (25 μl) to each well and mixing thoroughly. • 5. Allow HDAC reactions to proceed for desired length of time and then stop them by addition of Fluor de Lys™ Developer (50 μl). Incubate plate at room temperature (25° C.) for 10-15 min. • 6. Read samples in a microtiter-plate reading fluorimeter capable of excitation at a wavelength in the range 350-380 nm and detection of emitted light in the range 440-460 nm. Measurement of In Vivo Inhibition of HDAC Subtype Activity: […]

HCT-8 = test: Tumor cell proliferation (MTS), HCT-8; type: cell-based; conditions: Homo sapiens, 72 hours, complete medium
Description: (§1) Measurement of In Vivo Cell Proliferation:
(§2) Tumor cells were trypsinized and plated into 96-well plates at 3,000 per well and incubated in complete medium with 10% FBS for 24 hours. Compounds were added over a final concentration range of 100 μmol/L to 100 nmol/L in 0.1% DMSO and incubated for 72 hours in complete medium. The effects on proliferation were determined by addition of MTS reagent (Promega) according to the instruction, incubation for 2 hours at 37° C. in CO2 incubator, and record the absorbance at 490 nm using an ELISA plate reader.
(§3) Human Cell Lines are Listed Below:
HCT-8: Ileocecal colorectal adenocarcinoma

A549 = test: Tumor cell proliferation (MTS), A549; type: cell-based; conditions: Homo sapiens, 72 hours, complete medium
Description: as §1, §2, §3
A549: Non small cell lung carcinoma

Bel-7402 = test: Tumor cell proliferation (MTS), Bel-7402; type: cell-based; conditions: Homo sapiens, 72 hours, complete medium
Description: as §1, §2, §3
Bel-7402: Hepatocellular carcinoma

MCF-7 = test: Tumor cell proliferation (MTS), MCF-7; type: cell-based; conditions: Homo sapiens, MCF7; 72 hours, complete medium
Description: as §1, §2, §3
MCF-7: Mammary gland adenocarcinoma

A-498 = test: Tumor cell proliferation (MTS), A-498; type: cell-based; conditions: Homo sapiens, A498; 72 hours, complete medium
Description: as §1, §2

| Class I HDAC (P21 reporter assay) Fold Induction at 10 μM (Class I HDAC) [Fold] | GI50 (human PDGFRβ) [nM] | % inhibition of total HDAC enzyme activity at 30 μM [1] [%] | GI50 (HCT-8) [µM] | GI50 (A549) [µM] | GI50 (Bel-7402) [µM] | GI50 (MCF-7) [µM] | GI50 (A-498) [µM] | Compound | GI50 (HUVEC cells) [nM] |
| --- | --- | --- | --- | --- | --- | --- | --- | --- | --- |
| 1.3 | – | 22.2 | – | – | – | – | – | Cc1cccc2c(Oc3ccc4c(C(=O)Nc5ccccc5N)cccc4c3)ccnc12 [Example 40, N-(2-aminophenyl)-6-(8-methylquinolin-4-yloxy)-1-naphthamide] | 1000 |
| 6.1 | – | 38.7 | – | – | – | – | – | Nc1ccccc1NC(=O)c1ccc(CNC(=O)c2cccc3cc(Oc4ccnc5cc(Cl)ccc45)ccc23)cc1 [Example 43, N-(4-((2-aminophenyl)carbamoyl)benzyl)-6-(7-chloroquinolin-4-yloxy)-1-naphthamide] | 288 |
| 1.2 | 32 | 15.9 | – | – | – | – | – | Nc1ccccc1NC(=O)c1cccc2cc(Oc3ccnc4ccccc34)ccc12 [Example 39, N-(2-aminophenyl)-6-(quinolin-4-yloxy)-1-naphthamide] | 107 |

Further lines, the compound ahead of its results:

| Compound | Class I HDAC (P21 reporter assay) Fold Induction at 10 μM (Class I HDAC) [Fold] | GI50 (human PDGFRβ) [nM] | % inhibition of total HDAC enzyme activity at 30 μM [1] [%] | GI50 (HCT-8) [µM] | GI50 (A549) [µM] | GI50 (Bel-7402) [µM] | GI50 (MCF-7) [µM] | GI50 (A-498) [µM] | GI50 (HUVEC cells) [nM] |
| --- | --- | --- | --- | --- | --- | --- | --- | --- | --- |
| COc1ccc(NC(=O)c2cccc3cc(Oc4ncnc5cc(OC)c(OC)cc45)ccc23)c(N)c1 [Example 19, N-(2-amino-4-methoxyphenyl)-6-(6,7-dimethoxyquinazolin-4-yloxy)-1-naphthamide] | 1.4 | 11 | 21.9 | – | – | – | – | – | 23 |
| COc1cc2ncnc(Oc3ccc4c(C(=O)Nc5ccc(Br)cc5N)cccc4c3)c2cc1OC [Example 21, N-(2-amino-4-bromophenyl)-6-(6,7-dimethoxyquinazolin-4-yloxy)-1-naphthamide] | 1.1 | 19 | 18.6 | – | – | – | – | – | 5 |
| COc1cc2ncnc(Oc3ccc4c(C(=O)Nc5ccccc5N)cccc4c3)c2cc1OC [Example 16, N-(2-aminophenyl)-6-(6,7-dimethoxyquinazolin-4-yloxy)-1-naphthamide] | 1.3 | 48 | 8.6 | 12.3 | 30 | 30 | 30 | ≥ 30 | 3 |
| Nc1cc(F)ccc1NC(=O)c1ccc(CNC(=O)/C=C/c2cccnc2)cc1 [CS055, Chidamide, reference compound] | 33 | – | – | 7.71 | 11.2 | 18.9 | 3.87 | 12.1 | – |
| COc1cc2nccc(Oc3ccc4c(C(=O)Nc5ccc(F)cc5N)cccc4c3)c2cc1OC [Example 36, N-(2-amino-4-fluorophenyl)-6-(6,7-dimethoxyquinolin-4-yloxy)-1-naphthamide] | 1.2 | 3 | 14.4 | 4.1 | 7.4 | 12.1 | 8.9 | 4.2 | 2 |
